Drawing on ChEMBL document CHEMBL4400524, “Optimizing TRPM4 inhibitors in the MHFP6 chemical space” (Eur J Med Chem, 2019), this text covers IC50 and inhibition for nine compounds.

The source made the active and inactive calls. The calls are words filed in the database; no cut-off is given here.

Type in all cases: cell-based
The target of assay [1] is T1, Transient receptor potential cation channel subfamily M member 4 (Homo sapiens, UniProt Q8TD43). The assay is described as follows: Inhibition of Flag-tagged TRPM4 (unknown origin) expressed in HEK293 cells assessed as reduction in intracellular Na+ influx after 45 mins by ANG2 dye-based fluorescence assay.
T1 sequence (Q8TD43 whole entry): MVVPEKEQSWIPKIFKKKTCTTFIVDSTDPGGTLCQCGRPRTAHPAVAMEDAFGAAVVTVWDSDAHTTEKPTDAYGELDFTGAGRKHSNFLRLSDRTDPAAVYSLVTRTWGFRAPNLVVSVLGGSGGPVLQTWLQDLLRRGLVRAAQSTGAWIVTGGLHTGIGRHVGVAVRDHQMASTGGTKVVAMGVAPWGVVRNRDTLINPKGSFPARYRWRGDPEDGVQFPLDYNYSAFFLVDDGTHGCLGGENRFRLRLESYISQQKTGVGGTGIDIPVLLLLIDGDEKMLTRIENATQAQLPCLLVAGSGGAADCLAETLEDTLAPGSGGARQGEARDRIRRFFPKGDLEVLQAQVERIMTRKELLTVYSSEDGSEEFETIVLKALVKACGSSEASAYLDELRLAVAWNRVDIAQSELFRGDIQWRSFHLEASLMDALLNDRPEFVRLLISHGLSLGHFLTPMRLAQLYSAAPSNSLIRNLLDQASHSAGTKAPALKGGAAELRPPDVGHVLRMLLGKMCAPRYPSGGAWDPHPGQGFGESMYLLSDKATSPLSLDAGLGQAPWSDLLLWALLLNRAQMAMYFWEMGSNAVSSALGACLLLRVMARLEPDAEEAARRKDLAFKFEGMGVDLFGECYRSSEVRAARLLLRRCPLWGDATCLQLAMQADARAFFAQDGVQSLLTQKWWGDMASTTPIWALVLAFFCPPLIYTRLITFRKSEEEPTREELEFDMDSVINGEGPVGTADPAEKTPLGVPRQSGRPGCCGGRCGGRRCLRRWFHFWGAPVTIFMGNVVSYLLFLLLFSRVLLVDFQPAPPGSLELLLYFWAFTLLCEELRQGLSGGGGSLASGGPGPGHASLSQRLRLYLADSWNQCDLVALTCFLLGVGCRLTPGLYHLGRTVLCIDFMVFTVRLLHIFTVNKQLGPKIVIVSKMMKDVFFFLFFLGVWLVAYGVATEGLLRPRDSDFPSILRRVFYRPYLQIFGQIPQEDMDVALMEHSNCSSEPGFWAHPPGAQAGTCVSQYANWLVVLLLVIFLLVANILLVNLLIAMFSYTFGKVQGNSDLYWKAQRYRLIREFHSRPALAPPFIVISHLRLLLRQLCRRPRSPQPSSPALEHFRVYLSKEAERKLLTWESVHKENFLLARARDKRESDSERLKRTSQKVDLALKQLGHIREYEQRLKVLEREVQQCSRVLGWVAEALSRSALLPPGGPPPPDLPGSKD
For assay [2], the target named is T1, Transient receptor potential cation channel subfamily M member 4. The assay is described as follows: Inhibition of Flag-tagged TRPM4 (unknown origin) expressed in HEK293 cells assessed as reduction in intracellular Na+ influx up to 100 uM after 45 mins by ANG2 dye-based fluorescence assay.
Assay [3] has the same target. Put plainly: Inhibition of Flag-tagged TRPM4 (unknown origin) expressed in HEK293 cells assessed as reduction in intracellular Na+ influx at 10 uM after 45 mins by ANG2 dye-based fluorescence assay relative to control.

`O=C(COc1ccccc1Cl)Nc1cc(-c2ncco2)ccc1C(=O)O`: the 50% inhibitory concentration (IC50) in assay [1] worked out at 4.9 µM. With `Cc1noc(C)c1-c1ccc(C(=O)O)c(NC(=O)COc2ccccc2Cl)c1`, in assay [2], the inhibition result was “inactive”. With `O=C(COc1ccccc1Cl)Nc1cc(Cl)ccc1C(=O)NS(=O)(=O)C1CC1`, in assay [1], the 50% inhibitory concentration (IC50) was determined as 2.8 µM. On to `O=C(COc1ccccc1Cl)Nc1cc(Cl)c(Cl)cc1C(=O)O`, for which the inhibition in assay [3] came to 30%. For `O=C(COc1ccccc1Cl)Nc1cc(-c2ccsc2)ccc1C(=O)O`, the IC50 in assay [1] was 5.9 µM.

As for `O=C(COc1ccccc1Cl)Nc1cc(-c2nccs2)ccc1C(=O)O`, the half-inhibitory concentration (IC50) in assay [1] came out at 4.7 µM. The same measure, in the same setting: then `N#Cc1ccc(C(=O)O)c(NC(=O)COc2ccccc2Cl)c1`, with 3.6 µM.

As to `Cc1cccc(NC(=O)COc2ccccc2Cl)c1C(=O)O`, in assay [1], the 50% inhibitory concentration (IC50) was found to be 1.3 µM.

As to `Cc1cc(Cl)ccc1OC(C)C(=O)Nc1cc(Cl)ccc1C(=O)O` (centres undefined), the concentration for half-maximal inhibition (IC50) in assay [1] (hek293) amounted to 1.6 µM.

As a reminder, the IC50 is the concentration that inhibits the measured activity by half. As a reminder, the inhibition is the change of the read-out against control, counted positive when it falls.
